Reference: PubChem BioAssay (NCI)
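A five-concentration, 48-hour dose response in 96-well plates underlies each endpoint, interpolated linearly between surrounding concentrations. Here, GI50 denotes the concentration required for 50% inhibition of growth. The concentration for full growth arrest is given as TGI.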

Experiments:
Test in all cases: inhibition of tumour cell growth, NCI panel, 48 h
[1] = tested on: HCT-116 colon
[2] = tested on: HCT-15 colon
[3] = tested on: KM12 colon
[4] = tested on: OVCAR-8 ovarian
[5] = tested on: MOLT-4 leukemia
[6] = tested on: SW-620 colon
[7] = tested on: MDA-MB-468 breast
[8] = tested on: LOX IMVI melanoma
[9] = tested on: T-47D breast
[10] = tested on: NCI-H226 lung
[11] = tested on: COLO 205 colon
[12] = tested on: NCI-H460 lung
[13] = tested on: SR leukemia
[14] = tested on: SK-MEL-5 melanoma
[15] = tested on: OVCAR-5 ovarian
[16] = tested on: MALME-3M melanoma
[17] = tested on: CAKI-1 renal
[18] = tested on: HCC-2998 colon
[19] = tested on: ACHN renal
[20] = tested on: SNB-19 CNS
[21] = tested on: M14 melanoma
[22] = tested on: 786-0 renal
[23] = tested on: TK-10 renal
[24] = tested on: PC-3 prostate
[25] = tested on: OVCAR-4 ovarian
[26] = tested on: SK-OV-3 ovarian
[27] = tested on: SN12C renal
[28] = tested on: CCRF-CEM leukemia
[29] = tested on: SF-295 CNS
[30] = tested on: MDA-MB-231 breast
[31] = tested on: UACC-62 melanoma
[32] = tested on: RPMI-8226 leukemia
[33] = tested on: EKVX NSCLC
[34] = tested on: HS 578T breast
[35] = tested on: HOP-92 NSCLC
[36] = tested on: HT29 colon
[37] = tested on: UACC-257 melanoma
[38] = tested on: MCF7 breast
[39] = tested on: K-562 leukemia
[40] = tested on: SF-539 CNS
[41] = tested on: A549 NSCLC
[42] = tested on: IGROV1 ovarian
[43] = tested on: U251 CNS
[44] = tested on: RXF 393 renal
[45] = tested on: SK-MEL-28 melanoma
[46] = tested on: BT-549 breast
[47] = tested on: A498 renal
[48] = tested on: NCI-H522 lung
[49] = tested on: SK-MEL-2 melanoma
[50] = tested on: UO-31 renal
[51] = tested on: OVCAR-3 ovarian
[52] = tested on: HL-60(TB) leukemia
[53] = tested on: SF-268 CNS
[54] = tested on: MDA-MB-435
[55] = tested on: HOP-62 NSCLC
[56] = tested on: NCI-H23 lung
[57] = tested on: DU-145 prostate

Molecule `Cc1ccc(C(=O)CSc2nc3ccc(F)cc3c(=O)n2-c2ccc(Cl)cc2)cc1` has a GI50 [1] of over 100 µM, a TGI [1] of over 100 µM and a GI50 [2] of over 100 µM. For the same molecule, the TGI [2] was over 100 µM, the GI50 [3] was over 100 µM and the TGI [3] was over 100 µM. For the same molecule, the GI50 [4] was 7.89 µM, the TGI [4] was over 100 µM and the GI50 [5] was over 100 µM. For the same molecule, the TGI [5] was over 100 µM, the GI50 [6] was over 100 µM and the TGI [6] was over 100 µM. For the same molecule, the GI50 [7] was 82.9 µM, the TGI [7] was over 100 µM and the GI50 [8] was 4.04 µM. The TGI [8] was over 100 µM, the GI50 [9] was over 100 µM and the TGI [9] was over 100 µM. The GI50 [10] was 3.13 µM, the TGI [10] was 24.9 µM and the GI50 [11] was over 100 µM. The TGI [11] was over 100 µM, the GI50 [12] was 10.3 µM and the TGI [12] was over 100 µM. The GI50 [13] was over 100 µM, the TGI [13] was over 100 µM and the GI50 [14] was over 100 µM. The TGI [14] was over 100 µM, the GI50 [15] was over 100 µM and the TGI [15] was over 100 µM. The GI50 [16] was 66.7 µM, the TGI [16] was over 100 µM and the GI50 [17] was 4.49 µM. The TGI [17] was 44.5 µM, the GI50 [18] was over 100 µM and the TGI [18] was over 100 µM. For the same molecule, the GI50 [19] was 6.83 µM, the TGI [19] was over 100 µM and the GI50 [20] was 4.93 µM. For the same molecule, the TGI [20] was 73.8 µM, the GI50 [21] was over 100 µM and the TGI [21] was over 100 µM. The GI50 [22] was 11.1 µM, the TGI [22] was over 100 µM and the GI50 [23] was 98.1 µM. It also gave a TGI [23] of over 100 µM, a GI50 [24] of over 100 µM and a TGI [24] of over 100 µM. It also gave a GI50 [25] of 9.45 µM, a TGI [25] of over 100 µM and a GI50 [26] of 39.1 µM. For the same molecule, the TGI [26] was over 100 µM, the GI50 [27] was over 100 µM and the TGI [27] was over 100 µM. It also gave a GI50 [28] of over 100 µM, a TGI [28] of over 100 µM and a GI50 [29] of 3.51 µM. The TGI [29] was 21.4 µM, the GI50 [30] was 15.1 µM and the TGI [30] was over 100 µM. It also gave a GI50 [31] of over 100 µM, a TGI [31] of over 100 µM and a GI50 [32] of over 100 µM. The TGI [32] was over 100 µM, the GI50 [33] was over 100 µM and the TGI [33] was over 100 µM. It also gave a GI50 [34] of 3.41 µM, a TGI [34] of 86.2 µM and a GI50 [35] of 5 µM. For the same molecule, the TGI [35] was 57.5 µM, the GI50 [36] was over 100 µM and the TGI [36] was over 100 µM. For the same molecule, the GI50 [37] was over 100 µM, the TGI [37] was over 100 µM and the GI50 [38] was over 100 µM. The TGI [38] was over 100 µM, the GI50 [39] was over 100 µM and the TGI [39] was over 100 µM. For the same molecule, the GI50 [40] was 5.08 µM, the TGI [40] was 47.4 µM and the GI50 [41] was over 100 µM. For the same molecule, the TGI [41] was over 100 µM, the GI50 [42] was 27.1 µM and the TGI [42] was over 100 µM. It also gave a GI50 [43] of 10.8 µM, a TGI [43] of over 100 µM and a GI50 [44] of 4.89 µM. It also gave a TGI [44] of 32.6 µM, a GI50 [45] of over 100 µM and a TGI [45] of over 100 µM. It also gave a GI50 [46] of 11.2 µM, a TGI [46] of over 100 µM and a GI50 [47] of over 100 µM. For the same molecule, the TGI [47] was over 100 µM, the GI50 [48] was over 100 µM and the TGI [48] was over 100 µM. The GI50 [49] was over 100 µM, the TGI [49] was over 100 µM and the GI50 [50] was 37 µM. The TGI [50] was over 100 µM, the GI50 [51] was over 100 µM and the TGI [51] was over 100 µM. The GI50 [52] was over 100 µM, the TGI [52] was over 100 µM and the GI50 [53] was 25.3 µM. It also gave a TGI [53] of over 100 µM, a GI50 [54] of over 100 µM and a TGI [54] of over 100 µM. The GI50 [55] was 3.95 µM, the TGI [55] was 50.4 µM and the GI50 [56] was over 100 µM. The TGI [56] was over 100 µM, the GI50 [57] was 59.5 µM and the TGI [57] was over 100 µM.
